# System: 653999-131-R-J2-PDC complex spheroids, growth inhibition
# Assay: Anticancer human tumor 653999-131-R-J2-PDC patient-derived lung adenocarcinoma cell line growth inhibition [RAS]
# Details: for IC50: curve of first compound; for viability, T/C: stronger effect = lower value
# Method in brief: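 Agents were tested in combination matrices in half-log decrements from a top concentration at or near clinical Cmax (10 microM if undetermined). Targets were multi-cell spheroids of tumour lines plus HUVEC and MSC stromal cells.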
# 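Note: spheroids exposed to the agents for seven days before the readout.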
compound,measurement,setting,value
CCc1c2c(nc3ccc(O)cc13)-c1cc3c(c(=O)n1C2)COC(=O)[C@]3(O)CC + CCn1c(-c2cc(N3CCN(C)CC3)cnc2C(C)OC)c2c3cc(ccc31)-c1csc(n1)CC(NC(=O)C1CC1C)C(=O)N1CCCC(N1)C(=O)OCC(C)(C)C2,IC50,second compound 0.000949 µM,3.61 nM
same,IC50,second compound 0.003 µM,1.3 nM
same,IC50,second compound 0.00949 µM,< 0.949 nM
same,IC50,second compound 0.03 µM,< 0.949 nM
same,IC50,second compound 0.0949 µM,< 0.949 nM
same,IC50,second compound 0.3 µM,< 0.949 nM
same,"viability, T/C","second compound 0.000949 µM, first compound 0.000949 µM",70.2%
same,"viability, T/C","second compound 0.000949 µM, first compound 0.003 µM",48.4%
same,"viability, T/C","second compound 0.000949 µM, first compound 0.00949 µM",42.2%
same,"viability, T/C","second compound 0.000949 µM, first compound 0.03 µM",25.1%
same,"viability, T/C","second compound 0.000949 µM, first compound 0.0949 µM",17.2%
same,"viability, T/C","second compound 0.000949 µM, first compound 0.3 µM",11.2%
same,"viability, T/C","second compound 0.003 µM, first compound 0.000949 µM",56%
same,"viability, T/C","second compound 0.003 µM, first compound 0.003 µM",34.1%
same,"viability, T/C","second compound 0.003 µM, first compound 0.00949 µM",30.6%
same,"viability, T/C","second compound 0.003 µM, first compound 0.03 µM",17.5%
same,"viability, T/C","second compound 0.003 µM, first compound 0.0949 µM",14.7%
same,"viability, T/C","second compound 0.003 µM, first compound 0.3 µM",10.1%
same,"viability, T/C","second compound 0.00949 µM, first compound 0.000949 µM",39.1%
same,"viability, T/C","second compound 0.00949 µM, first compound 0.003 µM",27.3%
same,"viability, T/C","second compound 0.00949 µM, first compound 0.00949 µM",18.9%
same,"viability, T/C","second compound 0.00949 µM, first compound 0.03 µM",14.1%
same,"viability, T/C","second compound 0.00949 µM, first compound 0.0949 µM",9.53%
same,"viability, T/C","second compound 0.00949 µM, first compound 0.3 µM",6.56%
same,"viability, T/C","second compound 0.03 µM, first compound 0.000949 µM",29.8%
same,"viability, T/C","second compound 0.03 µM, first compound 0.003 µM",18.2%
same,"viability, T/C","second compound 0.03 µM, first compound 0.00949 µM",17.8%
same,"viability, T/C","second compound 0.03 µM, first compound 0.03 µM",9.32%
same,"viability, T/C","second compound 0.03 µM, first compound 0.0949 µM",6.76%
same,"viability, T/C","second compound 0.03 µM, first compound 0.3 µM",6.96%
same,"viability, T/C","second compound 0.0949 µM, first compound 0.000949 µM",23.9%
same,"viability, T/C","second compound 0.0949 µM, first compound 0.003 µM",15.4%
same,"viability, T/C","second compound 0.0949 µM, first compound 0.00949 µM",11.4%
same,"viability, T/C","second compound 0.0949 µM, first compound 0.03 µM",9.9%
same,"viability, T/C","second compound 0.0949 µM, first compound 0.0949 µM",7.72%
same,"viability, T/C","second compound 0.0949 µM, first compound 0.3 µM",5.39%
same,"viability, T/C","second compound 0.3 µM, first compound 0.000949 µM",21.1%
same,"viability, T/C","second compound 0.3 µM, first compound 0.003 µM",14.4%
same,"viability, T/C","second compound 0.3 µM, first compound 0.00949 µM",11.6%
same,"viability, T/C","second compound 0.3 µM, first compound 0.03 µM",9.69%
same,"viability, T/C","second compound 0.3 µM, first compound 0.0949 µM",6.54%
same,"viability, T/C","second compound 0.3 µM, first compound 0.3 µM",4.62%
